According to the NIST ThermoML archive (doi:10.1021/je400055v):
± gives the expanded uncertainty stated by the source.

Test: xn = mol fraction of the nth substance listed
Settings: Liquid, Vibrating tube method

CCCCCCCCCCC [undecane] + CCCCCCC
Settings | mass density [kg/m3]
313.12 K, 2001 kPa, x2 = 0.5063 | 703.7 ± 0.3
313.12 K, 3000 kPa, x2 = 0.5063 | 704.6 ± 0.3
313.12 K, 4000 kPa, x2 = 0.5063 | 705.6 ± 0.3
313.12 K, 5000 kPa, x2 = 0.5063 | 706.5 ± 0.3
313.12 K, 6000 kPa, x2 = 0.5063 | 707.4 ± 0.3
313.12 K, 7000 kPa, x2 = 0.5063 | 708.2 ± 0.3
313.12 K, 8001 kPa, x2 = 0.5063 | 709.1 ± 0.3
313.12 K, 9000 kPa, x2 = 0.5063 | 709.9 ± 0.3
313.12 K, 10000 kPa, x2 = 0.5063 | 710.8 ± 0.3
313.12 K, 11000 kPa, x2 = 0.5063 | 711.6 ± 0.3
313.12 K, 12000 kPa, x2 = 0.5063 | 712.4 ± 0.3
313.12 K, 13000 kPa, x2 = 0.5063 | 713.2 ± 0.3
313.12 K, 14000 kPa, x2 = 0.5063 | 714 ± 0.3
313.12 K, 15000 kPa, x2 = 0.5063 | 714.8 ± 0.4
313.12 K, 16000 kPa, x2 = 0.5063 | 715.6 ± 0.4
313.12 K, 17001 kPa, x2 = 0.5063 | 716.3 ± 0.4
313.12 K, 18000 kPa, x2 = 0.5063 | 717.1 ± 0.4
313.12 K, 19000 kPa, x2 = 0.5063 | 717.8 ± 0.4
313.12 K, 20000 kPa, x2 = 0.5063 | 718.5 ± 0.4
313.12 K, 21001 kPa, x2 = 0.5063 | 719.2 ± 0.4
313.12 K, 22050 kPa, x2 = 0.5063 | 720 ± 0.4
313.12 K, 23000 kPa, x2 = 0.5063 | 720.6 ± 0.4
313.12 K, 24000 kPa, x2 = 0.5063 | 721.3 ± 0.4
313.12 K, 25000 kPa, x2 = 0.5063 | 722 ± 0.4
313.14 K, 1001 kPa, x2 = 0.9511 | 671.7 ± 0.3
313.14 K, 2000 kPa, x2 = 0.9511 | 672.8 ± 0.3
313.14 K, 3000 kPa, x2 = 0.9511 | 673.9 ± 0.3
313.14 K, 4000 kPa, x2 = 0.9511 | 674.9 ± 0.3
313.14 K, 5000 kPa, x2 = 0.9511 | 676 ± 0.3
313.14 K, 6000 kPa, x2 = 0.9511 | 677 ± 0.3
313.14 K, 7000 kPa, x2 = 0.9511 | 678 ± 0.3
313.14 K, 8000 kPa, x2 = 0.9511 | 679 ± 0.3
313.14 K, 9000 kPa, x2 = 0.9511 | 680 ± 0.3
313.14 K, 10000 kPa, x2 = 0.9511 | 680.9 ± 0.3
313.14 K, 11000 kPa, x2 = 0.9511 | 681.8 ± 0.3
313.14 K, 12000 kPa, x2 = 0.9511 | 682.7 ± 0.4
313.14 K, 13000 kPa, x2 = 0.9511 | 683.6 ± 0.4
313.14 K, 14001 kPa, x2 = 0.9511 | 684.5 ± 0.4
313.14 K, 15001 kPa, x2 = 0.9511 | 685.4 ± 0.4
313.14 K, 16000 kPa, x2 = 0.9511 | 686.3 ± 0.4
313.14 K, 17001 kPa, x2 = 0.9511 | 687.1 ± 0.4
313.14 K, 18001 kPa, x2 = 0.9511 | 687.9 ± 0.4
313.14 K, 19000 kPa, x2 = 0.9511 | 688.7 ± 0.4
313.14 K, 20000 kPa, x2 = 0.9511 | 689.5 ± 0.4
313.14 K, 21001 kPa, x2 = 0.9511 | 690.3 ± 0.4
313.14 K, 22000 kPa, x2 = 0.9511 | 691.1 ± 0.4
313.14 K, 23001 kPa, x2 = 0.9511 | 691.9 ± 0.4
313.14 K, 24000 kPa, x2 = 0.9511 | 692.6 ± 0.5
313.14 K, 25000 kPa, x2 = 0.9511 | 693.3 ± 0.5
313.15 K, 1000 kPa, x2 = 0.7482 | 687.4 ± 0.3
313.15 K, 1001 kPa, x2 = 0.05 | 724.3 ± 0.3
313.15 K, 2000 kPa, x2 = 0.7482 | 688.4 ± 0.3
313.15 K, 2001 kPa, x2 = 0.05 | 725.1 ± 0.3
313.15 K, 3000 kPa, x2 = 0.05 | 726 ± 0.3
313.15 K, 3000 kPa, x2 = 0.7482 | 689.4 ± 0.3
313.15 K, 4000 kPa, x2 = 0.05 | 726.8 ± 0.3
313.15 K, 4000 kPa, x2 = 0.7482 | 690.4 ± 0.3
313.15 K, 5000 kPa, x2 = 0.05 | 727.6 ± 0.3
313.15 K, 5000 kPa, x2 = 0.7482 | 691.3 ± 0.3
313.15 K, 6000 kPa, x2 = 0.05 | 728.4 ± 0.3
313.15 K, 6000 kPa, x2 = 0.7482 | 692.3 ± 0.3
313.15 K, 7000 kPa, x2 = 0.05 | 729.2 ± 0.3
313.15 K, 7000 kPa, x2 = 0.7482 | 693.2 ± 0.3
313.15 K, 8000 kPa, x2 = 0.7482 | 694.1 ± 0.3
313.15 K, 8001 kPa, x2 = 0.05 | 730 ± 0.3
313.15 K, 9000 kPa, x2 = 0.05 | 730.8 ± 0.3
313.15 K, 9000 kPa, x2 = 0.7482 | 695 ± 0.3
313.15 K, 10000 kPa, x2 = 0.05 | 731.6 ± 0.3
313.15 K, 10000 kPa, x2 = 0.7482 | 695.9 ± 0.3
313.15 K, 11000 kPa, x2 = 0.05 | 732.3 ± 0.3
313.15 K, 11000 kPa, x2 = 0.7482 | 696.8 ± 0.3
313.15 K, 12000 kPa, x2 = 0.05 | 733.1 ± 0.3
313.15 K, 12000 kPa, x2 = 0.7482 | 697.6 ± 0.3
313.15 K, 13000 kPa, x2 = 0.05 | 733.8 ± 0.3
313.15 K, 13000 kPa, x2 = 0.7482 | 698.5 ± 0.4
313.15 K, 14000 kPa, x2 = 0.05 | 734.5 ± 0.3
313.15 K, 14000 kPa, x2 = 0.7482 | 699.3 ± 0.4
313.15 K, 15000 kPa, x2 = 0.05 | 735.2 ± 0.3
313.15 K, 15000 kPa, x2 = 0.7482 | 700.1 ± 0.4
313.15 K, 16000 kPa, x2 = 0.05 | 735.9 ± 0.4
313.15 K, 16000 kPa, x2 = 0.7482 | 700.9 ± 0.4
313.15 K, 17000 kPa, x2 = 0.05 | 736.6 ± 0.4
313.15 K, 17000 kPa, x2 = 0.7482 | 701.7 ± 0.4
313.15 K, 18000 kPa, x2 = 0.05 | 737.3 ± 0.4
313.15 K, 18000 kPa, x2 = 0.7482 | 702.5 ± 0.4
313.15 K, 19000 kPa, x2 = 0.05 | 738 ± 0.4
313.15 K, 19000 kPa, x2 = 0.7482 | 703.3 ± 0.4
313.15 K, 20000 kPa, x2 = 0.05 | 738.7 ± 0.4
313.15 K, 20000 kPa, x2 = 0.7482 | 704 ± 0.4
313.15 K, 21000 kPa, x2 = 0.05 | 739.3 ± 0.4
313.15 K, 21000 kPa, x2 = 0.7482 | 704.8 ± 0.4
313.15 K, 22000 kPa, x2 = 0.7482 | 705.5 ± 0.4
313.15 K, 22001 kPa, x2 = 0.05 | 740 ± 0.4
